Read-outs that look alike come from different tables or passages of the source.
Assays:
Type in all cases: cell-based
K. pneumoniae = assay: microbe, parasite or virus in culture; conditions: Klebsiella pneumoniae, read-out: MIC
Text: (§1) The antibacterial activity of cefepime-taniborbactam was compared to that of ceftazidime-avibactam, ceftolozane-tazobactam, and cefepime-tazobactam against a diverse panel of Enterobacterales and P. aeruginosa clinical isolates with defined β-lactamase subtypes (see Table S1 in the supplemental material). IMP-producing strains were excluded, as none of the BLI-protected cephalosporins inhibited IMP sufficiently to provide a clinically relevant rescue of the partner β-lactam, a characteristic also shared by approved BLI-protected carbapenems (meropenem-vaborbactam and imipenem-relebactam). […] The antibacterial activity of the cephalosporins alone was included to ascertain the level of potentiation by the partnered BLI. BLIs were tested at a fixed concentration of 4 μg/ml in all combinations except cefepime-tazobactam, where tazobactam was fixed at a concentration of 8 μg/ml ([38]). The collection comprised 143 clinical isolates collected from 2005 and 2018.
(§2) The in vitro antibacterial activity of the β-lactams alone or in combination with the BLIs was determined in cation-adjusted Mueller-Hinton broth (CAMHB) microdilution assays according to CLSI recommendations ([51]). […]. The inocula for the broth microdilution assays were prepared by the broth culture method ([51]). […]

C. freundii = assay: microbe, parasite or virus in culture; conditions: Citrobacter freundii
Text: as §1, §2

P. aeruginosa = assay: microbe, parasite or virus in culture; conditions: Pseudomonas aeruginosa, read-out: MIC
Text: as §1, §2

K. aerogenes = assay: microbe, parasite or virus in culture; conditions: Klebsiella aerogenes
Text: as §1, §2

S. paratyphi = assay: microbe, parasite or virus in culture; conditions: Salmonella enterica, strain 527, AmpC/TEM-1
Text: as §1, §2

S. typhi = assay: microbe, parasite or virus in culture; conditions: Salmonella enterica, strain 26A, AmpC/TEM-1
Text: as §1, §2

K. oxytoca = assay: microbe, parasite or virus in culture; conditions: Klebsiella oxytoca, read-out: MIC
Text: as §1, §2

E. coli = assay: microbe, parasite or virus in culture; conditions: Escherichia coli, read-out: MIC
Text: as §1, §2

S. marcescens = assay: microbe, parasite or virus in culture; conditions: Serratia marcescens
Text: as §1, §2

M. morgannii = assay: organism not typed; conditions: strain 769909; OXA-48
Text: as §1, §2

Structure (SMILES): Cn1c(N)c(NC(=O)NCCN)c[n+]1CC1=C(C(=O)O)N2C(=O)[C@@H](NC(=O)/C(=N\OC(C)(C)C(=O)[O-])c3nsc(N)n3)[C@H]2SC1 [TOL]
- MIC (K. pneumoniae; strain 6299, OXA-163): ≥ 256 µg/mL
- MIC (K. pneumoniae; strain 137052, SHV-11/KPC-3/TEM-1): 64 µg/mL
- MIC (K. pneumoniae; strain 178279, SHV-12/TEM-1/AmpC): 64 µg/mL
- MIC (K. pneumoniae; strain 196477, AmpC): ≥ 256 µg/mL
- MIC (K. pneumoniae; strain 212027, AmpC/FOX-5/TEM-1): 8 µg/mL
- MIC (K. pneumoniae; strain 515746, OXA-48): 128 µg/mL
- MIC (K. pneumoniae; strain 664438, OXA-48): 128 µg/mL
- MIC (K. pneumoniae; strain 664439, OXA-48): 128 µg/mL
- MIC (K. pneumoniae; strain 722870, OXA-48): 64 µg/mL
- MIC (K. pneumoniae; strain 752334, OXA-48): ≥ 256 µg/mL
- MIC (K. pneumoniae; strain 769972, OXA-48): 128 µg/mL
- MIC (K. pneumoniae; strain 787422, OXA-48): 64 µg/mL
- MIC (K. pneumoniae; strain 845661, KPC): ≥ 256 µg/mL
- MIC (K. pneumoniae; strain 847204, KPC): 64 µg/mL
- MIC (K. pneumoniae; strain 848562, KPC): ≥ 256 µg/mL
- MIC (K. pneumoniae; strain 848600, KPC): ≥ 256 µg/mL
- MIC (K. pneumoniae; strain 848828, KPC): 128 µg/mL
- MIC (K. pneumoniae; strain 849170, KPC): 128 µg/mL
- MIC (K. pneumoniae; strain 856819, SHV-11/VIM-1): ≥ 256 µg/mL
- MIC (K. pneumoniae; strain 864085, KPC): ≥ 256 µg/mL
- MIC (K. pneumoniae; strain 871489, KPC): ≥ 256 µg/mL
- MIC (K. pneumoniae; strain 873460, SHV-30/CTX-M-15): 128 µg/mL
- MIC (K. pneumoniae; strain 874328, SHV-11/CTX-M-15/NDM-1): ≥ 256 µg/mL
- MIC (K. pneumoniae; strain 882752, SHV-11/TEM-1/KPC-3): 128 µg/mL
- MIC (K. pneumoniae; strain 882956, SHV-31/DHA-1/VIM-1): ≥ 256 µg/mL
- MIC (K. pneumoniae; strain 884679, KPC): 64 µg/mL
- MIC (K. pneumoniae; strain 890066, SHV-33/TEM-33/CTX-M-15/IMP-1): ≥ 256 µg/mL
- MIC (K. pneumoniae; strain 892694, SHV-12/TEM-1/CTX-M-15/OXA-48/ACT): ≥ 256 µg/mL
- MIC (K. pneumoniae; strain 919877, SHV-OSBL/VIM-1): ≥ 256 µg/mL
- MIC (K. pneumoniae; strain 1104864, SHV-OSBL(b)/VIM-1): ≥ 256 µg/mL
- MIC (K. pneumoniae; strain 1104866, SHV-OSBL(b)/VIM-1): ≥ 256 µg/mL
- MIC (K. pneumoniae; strain 1280442, SHV-OSBL(b)/VIM-1): ≥ 256 µg/mL
- MIC (K. pneumoniae; strain CDC-0003, KPC): 128 µg/mL
- MIC (K. pneumoniae; strain CDC-0049, NDM): ≥ 256 µg/mL
- MIC (K. pneumoniae; strain CDC-0117, KPC-3): 128 µg/mL
- MIC (K. pneumoniae; strain CDC-0125, KPC-3): 128 µg/mL
- MIC (K. pneumoniae; strain CDC-0139, NDM-1): ≥ 256 µg/mL
- MIC (K. pneumoniae; strain CDC-0145, NDM): ≥ 256 µg/mL
- MIC (K. pneumoniae; strain CDC-0148, NDM): ≥ 256 µg/mL
- MIC (K. pneumoniae; strain CDC-0152, NDM): ≥ 256 µg/mL
- MIC (K. pneumoniae; strain DOV, OXA-48): 128 µg/mL
- MIC (K. pneumoniae; strain ESBL8 #1, TEM-1/SHV-12): 32 µg/mL
- MIC (K. pneumoniae; strain ESBL 10, SHV-12/TEM-1): 32 µg/mL
- MIC (K. pneumoniae; strain KIRK, OXA-162): 128 µg/mL
- MIC (K. pneumoniae; strain KP 3, SHV-1/TEM-1): ≥ 256 µg/mL
- MIC (K. pneumoniae; strain KPN 508, SHV-7/TEM-1): 32 µg/mL
- MIC (K. pneumoniae; strain SI-C05, OXA-48): ≥ 256 µg/mL
- MIC (K. pneumoniae; strain SI-F100, SHV-5/TEM-1/CMY-2): 16 µg/mL
- MIC (K. pneumoniae; strain SI-KP NO30, TEM-26b/SHV-60/SHV-26): 64 µg/mL
- MIC (C. freundii; strain 134390, AmpC/TEM-1): 8 µg/mL
- MIC (C. freundii; strain 241181, AmpC/TEM-163): 16 µg/mL
- MIC (P. aeruginosa; ATCC27853, strain ATCC 27853, W.T.): 1 µg/mL
- MIC (P. aeruginosa; strain 10.257, PDC-50): 16 µg/mL
- MIC (P. aeruginosa; strain 11.516, PDC-79): 64 µg/mL
- MIC (P. aeruginosa; strain 11.698, PDC-87): 32 µg/mL
- MIC (P. aeruginosa; strain 11.813, PDC-91): 8 µg/mL
- MIC (P. aeruginosa; strain 13.1716, PDC-74): 128 µg/mL
- MIC (P. aeruginosa; strain 13.1717, PDC-74): 64 µg/mL
- MIC (P. aeruginosa; strain 13.1737, PDC-80): 128 µg/mL
- MIC (P. aeruginosa; strain 13.1755, PDC-86): 128 µg/mL
- MIC (P. aeruginosa; strain 13.1760, PDC-77): 32 µg/mL
- MIC (P. aeruginosa; strain 13.1775, PDC-87): 16 µg/mL
- MIC (P. aeruginosa; strain 247.3D, VIM-2): ≥ 256 µg/mL
- MIC (P. aeruginosa; strain 1129, PDC): 1 µg/mL
- MIC (P. aeruginosa; strain 3615, PDC/TEM-1): 4 µg/mL
- MIC (P. aeruginosa; strain 5671, VIM-1): 64 µg/mL
- MIC (P. aeruginosa; strain 8273, PDC/TEM-1): 1 µg/mL
- MIC (P. aeruginosa; strain 164951, W.T.): 1 µg/mL
- MIC (P. aeruginosa; strain 377860, W.T.): 1 µg/mL
- MIC (P. aeruginosa; strain 384743, PDC/TEM-1): 16 µg/mL
- MIC (P. aeruginosa; strain 1013996, KPC-2): 16 µg/mL
- MIC (P. aeruginosa; strain 1071703, GES-6): 32 µg/mL
- MIC (P. aeruginosa; strain 1113755, GES-5): ≥ 256 µg/mL
- MIC (P. aeruginosa; strain 1138223, GES-19): ≥ 256 µg/mL
- MIC (P. aeruginosa; strain 1138337, GES-19): ≥ 256 µg/mL
- MIC (P. aeruginosa; strain 1258509, GES-6): 64 µg/mL
- MIC (P. aeruginosa; strain 1275655, GES-20): ≥ 256 µg/mL
- MIC (P. aeruginosa; strain 1300089, GES-19): ≥ 256 µg/mL
- MIC (P. aeruginosa; strain 1313666, KPC-2): 32 µg/mL
- MIC (P. aeruginosa; strain CDC-0090, KPC): 32 µg/mL
- MIC (P. aeruginosa; strain PA2, W.T.): 2 µg/mL
- MIC (P. aeruginosa; strain PAA1-9G1, GES-5): ≥ 256 µg/mL
- MIC (P. aeruginosa; strain PAA1-9G2, GES-5): ≥ 256 µg/mL
- MIC (P. aeruginosa; strain PS-12, VIM-2): ≥ 256 µg/mL
- MIC (P. aeruginosa; strain PS-32, VIM-2): 128 µg/mL
- MIC (P. aeruginosa; strain Paeβ-04, 100-fold ↑ PDC-2/30% OprD/5.6x ↑ABM): 2 µg/mL
- MIC (P. aeruginosa; strain Paeβ-10, 67-fold ↑ PDC-2/0.1% OprD/5.7x↑ABM): 2 µg/mL
- MIC (P. aeruginosa; strain Paeβ-15, 310-fold ↑ PDC-2/10% OprD/4.4x↑XYM): 4 µg/mL
- MIC (P. aeruginosa; strain Paeβ-17, 62-fold ↑PDC-3/30% OprD/10.2x and 9.9x ↑XYM and CDJ): 2 µg/mL
- MIC (P. aeruginosa; strain Paeβ-18, 600-fold ↑ PDC-3/<0.01% OprD/3.9x and 5.6x ↑ABM and XYM): 16 µg/mL
- MIC (P. aeruginosa; strain Paeβ-21, 200-fold ↑ PDC-4/10% OprD/13.5x ↑XYM): 2 µg/mL
- MIC (P. aeruginosa; strain Ps296, VIM-2): ≥ 256 µg/mL
- MIC (K. aerogenes; strain 73546, AmpC): 4 µg/mL
- MIC (K. aerogenes; strain 110099, AmpC/SHV-12): 64 µg/mL
- MIC (K. aerogenes; strain 111707, AmpC/TEM-1): 4 µg/mL
- MIC (S. paratyphi): 32 µg/mL
- MIC (S. typhi): 16 µg/mL
- MIC (K. oxytoca; strain 134943, CMY-2/TEM-1): 8 µg/mL
- MIC (K. oxytoca; strain 847537, KPC): ≥ 256 µg/mL
- MIC (E. coli; strain 469, AmpC/SHV-12/TEM-1): 8 µg/mL
- MIC (E. coli; strain 1924, TEM-12): 16 µg/mL
- MIC (E. coli; strain 664507, OXA-48): 64 µg/mL
- MIC (E. coli; strain 664516, OXA-48): 64 µg/mL
- MIC (E. coli; strain 664520, OXA-48): 64 µg/mL
- MIC (E. coli; strain 664522, OXA-48): 128 µg/mL
- MIC (E. coli; strain 664523, OXA-48): 64 µg/mL
- MIC (E. coli; strain 849121, KPC): 32 µg/mL
- MIC (E. coli; strain 873435, CTX-M-15): 128 µg/mL
- MIC (E. coli; strain 875627, CTX-M-27): 16 µg/mL
- MIC (E. coli; strain 878358, TEM-1/CTX-M): 64 µg/mL
- MIC (E. coli; strain 890500, TEM-1/CTX-M-14): 8 µg/mL
- MIC (E. coli; strain 1275635, VIM-23): ≥ 256 µg/mL
- MIC (E. coli; strain 1459453, NDM-7): ≥ 256 µg/mL
- MIC (E. coli; strain CDC-0001, KPC): 64 µg/mL
- MIC (E. coli; strain CDC-0069, NDM): ≥ 256 µg/mL
- MIC (E. coli; strain CDC-0149, NDM): ≥ 256 µg/mL
- MIC (E. coli; strain EC1552 2A, AmpC/CMY-2/TEM-1, CTX-M-15): 16 µg/mL
- MIC (E. coli; strain ESBL 5, CTX-M-15/TEM-1): 128 µg/mL
- MIC (E. coli; strain SI-LP377, CTX-M-2): 32 µg/mL
- MIC (E. coli; strain SI-M004, SHV-2/GES-12): 64 µg/mL
- MIC (E. coli; strain SI-PO26, AmpC/CMY-2/TEM-1): 8 µg/mL
- MIC (E. coli; strain SI-V502, TEM-29/CTX-M-15): 8 µg/mL
- MIC (E. coli; strain VER, OXA-48): 2 µg/mL
- MIC (S. marcescens; strain 134434, AmpC/SHV-12/TEM-1): 64 µg/mL
- MIC (S. marcescens; strain 192476, AmpC/TEM-1/SHV-5): 64 µg/mL
- MIC (S. marcescens; strain 192478, AmpC/SHV-12/TEM-1): 64 µg/mL
- MIC (S. marcescens; strain 218073, AmpC/SHV-7/TEM-1): 64 µg/mL
- MIC (M. morgannii): 8 µg/mL

Reference: article PMC7038240 (Antimicrobial Agents and Chemotherapy, 2020)
